In ChEMBL document CHEMBL5338805, “Discovery of the First Subnanomolar PPARα/δ Dual Agonist for the Treatment of Cholestatic Liver Diseases” (J Med Chem, 2023):

Columns and labels:
Assay type in all cases: cell-based
[1] = biological target: T1, Peroxisome proliferator-activated receptor gamma (Homo sapiens, UniProt P37231); experiment: Agonist activity at human PPARgamma transfected in african green monkey COS7 cells assessed transactivation incubated for 16 hrs by luciferase assay
T1 sequence (P37231 whole entry): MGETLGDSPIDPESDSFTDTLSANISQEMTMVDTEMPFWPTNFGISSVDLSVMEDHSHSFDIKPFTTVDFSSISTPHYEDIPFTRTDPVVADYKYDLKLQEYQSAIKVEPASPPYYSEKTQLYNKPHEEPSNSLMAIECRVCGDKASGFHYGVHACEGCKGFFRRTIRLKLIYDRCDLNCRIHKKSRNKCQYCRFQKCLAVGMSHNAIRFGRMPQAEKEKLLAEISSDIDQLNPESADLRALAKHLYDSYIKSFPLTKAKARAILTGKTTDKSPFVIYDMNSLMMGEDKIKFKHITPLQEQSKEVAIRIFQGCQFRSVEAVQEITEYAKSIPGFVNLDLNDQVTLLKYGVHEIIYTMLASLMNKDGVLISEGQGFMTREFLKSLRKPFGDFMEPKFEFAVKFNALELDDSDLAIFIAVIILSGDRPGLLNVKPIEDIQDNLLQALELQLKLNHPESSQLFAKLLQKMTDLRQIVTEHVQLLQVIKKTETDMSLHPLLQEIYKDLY

[2] = biological target: T2, Peroxisome proliferator-activated receptor alpha (Homo sapiens, UniProt Q07869); experiment: Agonist activity at human PPARalpha transfected in african green monkey COS7 cells assessed transactivation incubated for 16 hrs by luciferase assay
T2 sequence (Q07869 whole entry): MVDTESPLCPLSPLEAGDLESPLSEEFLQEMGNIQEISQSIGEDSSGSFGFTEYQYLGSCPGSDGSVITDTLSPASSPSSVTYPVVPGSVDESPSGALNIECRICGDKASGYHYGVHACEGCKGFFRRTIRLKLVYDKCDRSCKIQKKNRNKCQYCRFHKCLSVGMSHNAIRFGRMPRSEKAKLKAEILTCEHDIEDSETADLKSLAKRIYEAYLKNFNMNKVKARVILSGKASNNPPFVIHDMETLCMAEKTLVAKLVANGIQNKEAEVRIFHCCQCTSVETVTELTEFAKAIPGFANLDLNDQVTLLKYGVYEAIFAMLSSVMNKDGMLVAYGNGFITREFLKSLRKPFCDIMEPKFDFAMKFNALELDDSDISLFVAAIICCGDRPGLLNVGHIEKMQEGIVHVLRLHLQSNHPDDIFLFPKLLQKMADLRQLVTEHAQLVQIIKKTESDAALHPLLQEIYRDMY

[3] = biological target: Peroxisome proliferator-activated receptor delta (Homo sapiens, UniProt Q03181); experiment: Agonist activity at human PPARdelta transfected in african green monkey COS7 cells assessed transactivation incubated for 16 hrs by luciferase assay
Sequence of Peroxisome proliferator-activated receptor delta (Q03181 whole entry): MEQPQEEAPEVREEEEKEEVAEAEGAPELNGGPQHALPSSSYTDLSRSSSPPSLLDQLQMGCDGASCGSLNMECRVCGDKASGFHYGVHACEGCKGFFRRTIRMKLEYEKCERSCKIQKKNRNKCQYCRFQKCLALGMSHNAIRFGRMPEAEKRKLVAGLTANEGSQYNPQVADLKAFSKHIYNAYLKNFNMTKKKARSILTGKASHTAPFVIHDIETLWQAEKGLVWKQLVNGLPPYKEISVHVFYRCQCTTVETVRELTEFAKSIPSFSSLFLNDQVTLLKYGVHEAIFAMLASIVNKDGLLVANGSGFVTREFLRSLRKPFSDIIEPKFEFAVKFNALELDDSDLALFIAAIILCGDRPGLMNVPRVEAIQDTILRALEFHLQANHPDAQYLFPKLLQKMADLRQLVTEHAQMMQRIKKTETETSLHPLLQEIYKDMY

Structure (SMILES) | EC50 [1] | EC50 [2] | EC50 [3]
Cc1cc(Cn2ncn(-c3ccc(OC(F)(F)F)cc3)c2=O)cc(C)c1OC(C)(C)C(=O)O | – | 7.4 nM | –
Cc1cc(CN2C(=O)CN(c3ccc(C(F)(F)F)cc3)C2=O)cc(C)c1OC(C)C(=O)O (stereo unspecified) | > 5000 nM | – | 8.4 nM
Cc1cc(N2C(=O)CN(c3ccc(C(F)(F)F)cc3)C2=O)cc(C)c1OC(C)(C)C(=O)O | > 5000 nM | – | –

Next, values leading:

EC50 [1] | EC50 [2] | EC50 [3] | Structure (SMILES)
> 5000 nM | > 5000 nM | – | Cc1cc(CN2C(=O)CN(c3ccccc3C(F)(F)F)C2=O)cc(C)c1OC(C)(C)C(=O)O
277 nM | – | – | Cc1cc(CCN2C(=O)CN(c3ccc(C(F)(F)F)cc3)C2=O)cc(C)c1OC(C)(C)C(=O)O
1390 nM | – | – | Cc1cc(CN2C(=O)CN(c3ccc(OC(F)(F)F)cc3)C2=O)cc(C)c1OC(C)(C)C(=O)O
1170 nM | 2.7 nM | 8.2 nM | CSc1ccc(N2CC(=O)N(Cc3cc(C)c(OC(C)(C)C(=O)O)c(C)c3)C2=O)cc1
